Data as given in patent publication US4346076A, “Bis-tetrazoylmethyl substituted cephalosporin antibiotics” (Eli Lilly and Company, priority 1980, dated 1982).
In brackets after ≈: the same amount, converted by molar mass. Where two headings read alike, the source gives them in different places.

Key:
Experiment in all cases: in vitro antibacterial activity, agar dilution
Assay type in all cases: cell-based
[1] = test system: Bordetella bronchoseptica; settings: strain 16, read-out: Minimum Inhibitory Concentration
Excerpt: (§1) The bis-tetrazol-thiomethyl substituted cephalosporins of this invention are broad spectrum antibiotics which inhibit the growth of both gram positive and gram negative microorganisms which are pathogenic to man and animals. […] The following Table 2 lists the minimum inhibitory concentrations of representative compounds of the invention.
(§2) The data in TABLE 2 were obtained in the agar dilution test method using Mueller-Hinton agar containing two percent Supplement C (Difco). Serial two-fold dilutions were run with the highest concentration on test at 128 mcg/ml.

Citrobacter freundii = settings: strain CF17, read-out: Minimum Inhibitory Concentration
Excerpt: as §1, §2

Enterobacter aerogenes = settings: Klebsiella aerogenes, read-out: Minimum Inhibitory Concentration
Excerpt: as §1, §2

Enterobacter cloacae = test system: Enterobacter cloacae
Excerpt: as §1, §2

Escherichia coli = test system: Escherichia coli
Excerpt: as §1, §2

Haemophilus influenzae = settings: Haemophilus influenzae, read-out: Minimum Inhibitory Concentration
Excerpt: as §1, §2

Klebsiella sp. = test system: Klebsiella sp.
Excerpt: as §1, §2

Proteus inconstans = settings: Providencia alcalifaciens; strain PR33; read-out: Minimum Inhibitory Concentration
Excerpt: as §1, §2

Proteus morganii = settings: Morganella morganii; strain PR15; read-out: Minimum Inhibitory Concentration
Excerpt: as §1, §2

Proteus rettgeri = settings: Providencia rettgeri, read-out: Minimum Inhibitory Concentration
Excerpt: as §1, §2

Pseudomonas aeruginosa = test system: Pseudomonas aeruginosa
Excerpt: as §1, §2

Salmonella sp. = test system: Salmonella sp.
Excerpt: as §1, §2

Serratia marcescens = test system: Serratia marcescens
Excerpt: as §1, §2

Shigella sonnei = settings: strain N9, read-out: Minimum Inhibitory Concentration
Excerpt: as §1, §2

Staphylococcus aureus = test system: Staphylococcus aureus
Excerpt: as §1, §2

[2] = test system: Staphylococcus epidermidis
Excerpt: as §1, §2

Streptococcus Group A = settings: strain C203; read-out: Minimum Inhibitory Concentration
Excerpt: as §1, §2

Streptococcus Group D = settings: read-out: Minimum Inhibitory Concentration
Excerpt: as §1, §2

Streptococcus pneumoniae = settings: strain PARK, read-out: Minimum Inhibitory Concentration
Excerpt: as §1, §2

[3] = strain 265A, read-out: Minimum Inhibitory Concentration
[4] = strain EB5, read-out: Minimum Inhibitory Concentration
[5] = strain EC14, read-out: Minimum Inhibitory Concentration
[6] = strain N10, read-out: Minimum Inhibitory Concentration
[7] = strain TEM, read-out: Minimum Inhibitory Concentration
[8] = strain KAE, read-out: Minimum Inhibitory Concentration
[9] = strain X26, read-out: Minimum Inhibitory Concentration
[10] = strain Ps18, read-out: Minimum Inhibitory Concentration
[11] = strain X239, read-out: Minimum Inhibitory Concentration
[12] = strain X528, read-out: Minimum Inhibitory Concentration
[13] = strain 1335, read-out: Minimum Inhibitory Concentration
[14] = strain X514, read-out: Minimum Inhibitory Concentration
[15] = strain SE3, read-out: Minimum Inhibitory Concentration
[16] = strain X93, read-out: Minimum Inhibitory Concentration
[17] = read-out: Minimum Inhibitory Concentration
[18] = strain V41, read-out: Minimum Inhibitory Concentration
[19] = strain X1.1, read-out: Minimum Inhibitory Concentration
[20] = strain X400, read-out: Minimum Inhibitory Concentration
[21] = strain EPI1, read-out: Minimum Inhibitory Concentration
[22] = strain EPI2, read-out: Minimum Inhibitory Concentration

SMILES	MIC [1]	MIC (Citrobacter freundii)	MIC (Enterobacter aerogenes; strain C32)	MIC (Enterobacter aerogenes; strain EB17)	MIC (Enterobacter aerogenes; strain X68)	MIC (Enterobacter cloacae; [3])	MIC (Enterobacter cloacae; [4])	MIC (Escherichia coli; [5])	MIC (Escherichia coli; [6])	MIC (Escherichia coli; [7])	MIC (Klebsiella sp.; [8])	MIC (Klebsiella sp.; [9])	MIC (Proteus inconstans)	MIC (Proteus morganii)	MIC (Proteus rettgeri; strain C24)	MIC (Proteus rettgeri; strain PR7)	MIC (Pseudomonas aeruginosa; [10])	MIC (Pseudomonas aeruginosa; [11])	MIC (Pseudomonas aeruginosa; [12])	MIC (Salmonella sp.; [13])	other results
CO[C@@]1(NC(=O)Cc2cccs2)C(=O)N2C(C(=O)O)=C(CSc3nnnn3Cc3nnn[nH]3)CS[C@@H]21 [A, 7-(2-thienylacetamido)-7-methoxy-3-[1-(1H-tetrazole-5-ylmethyl)-1H-tetrazole-5-ylthiomethyl]-3-cephem-4-carboxylic acid]	> 128 µg/mL	> 128 µg/mL	> 128 µg/mL	> 128 µg/mL	4 µg/mL (≈ 7.26 µM)	> 128 µg/mL	> 128 µg/mL	4 µg/mL (≈ 7.26 µM)	8 µg/mL (≈ 14.5 µM)	4 µg/mL (≈ 7.26 µM)	4 µg/mL (≈ 7.26 µM)	1 µg/mL (≈ 1.82 µM)	4 µg/mL (≈ 7.26 µM)	64 µg/mL (≈ 116 µM)	1 µg/mL (≈ 1.82 µM)	4 µg/mL (≈ 7.26 µM)	> 128 µg/mL	> 128 µg/mL	> 128 µg/mL	2 µg/mL (≈ 3.63 µM)	MIC (Haemophilus influenzae; strain 76, resistant strain): 0.25 µg/mL (≈ 0.454 µM); MIC (Haemophilus influenzae; strain C.L., sensitive strain): 0.25 µg/mL (≈ 0.454 µM); MIC (Salmonella sp.; [14]): 1 µg/mL (≈ 1.82 µM); MIC (Serratia marcescens; [15]): 64 µg/mL (≈ 116 µM); MIC (Serratia marcescens; [16]): 16 µg/mL (≈ 29.1 µM); MIC (Shigella sonnei): 8 µg/mL (≈ 14.5 µM); MIC (Staphylococcus aureus; [17]): 8 µg/mL (≈ 14.5 µM); MIC (Staphylococcus aureus; [18]): 2 µg/mL (≈ 3.63 µM); MIC (Staphylococcus aureus; [19]): 2 µg/mL (≈ 3.63 µM); MIC (Staphylococcus aureus; [20]): 16 µg/mL (≈ 29.1 µM); MIC [2, 21]: 16 µg/mL (≈ 29.1 µM); MIC [2, 22]: 8 µg/mL (≈ 14.5 µM); MIC (Streptococcus Group A): 0.5 µg/mL (≈ 0.908 µM); MIC (Streptococcus Group D; strain 9960): > 128 µg/mL; MIC (Streptococcus Group D; strain X66): 64 µg/mL (≈ 116 µM); MIC (Streptococcus pneumoniae): 4 µg/mL (≈ 7.26 µM)
Cn1nnnc1Cn1nnnc1SCC1=C(C(=O)O)N2C(=O)[C@@H](NC(=O)Cc3cccs3)[C@H]2SC1 [B]	8 µg/mL (≈ 15 µM)	> 128 µg/mL	32 µg/mL (≈ 59.9 µM)	16 µg/mL (≈ 29.9 µM)	0.5 µg/mL (≈ 0.935 µM)	> 128 µg/mL	> 128 µg/mL	2 µg/mL (≈ 3.74 µM)	4 µg/mL (≈ 7.48 µM)	8 µg/mL (≈ 15 µM)	> 128 µg/mL	0.5 µg/mL (≈ 0.935 µM)	64 µg/mL (≈ 120 µM)	64 µg/mL (≈ 120 µM)	8 µg/mL (≈ 15 µM)	4 µg/mL (≈ 7.48 µM)	> 128 µg/mL	> 128 µg/mL	> 128 µg/mL	1 µg/mL (≈ 1.87 µM)	MIC (Haemophilus influenzae; strain 76, resistant strain): 0.5 µg/mL (≈ 0.935 µM); MIC (Haemophilus influenzae; strain C.L., sensitive strain): 1 µg/mL (≈ 1.87 µM); MIC (Salmonella sp.; [14]): 0.5 µg/mL (≈ 0.935 µM); MIC (Serratia marcescens; [15]): > 128 µg/mL; MIC (Serratia marcescens; [16]): > 128 µg/mL; MIC (Shigella sonnei): 4 µg/mL (≈ 7.48 µM); MIC (Staphylococcus aureus; [17]): 4 µg/mL (≈ 7.48 µM); MIC (Staphylococcus aureus; [18]): 2 µg/mL (≈ 3.74 µM); MIC (Staphylococcus aureus; [19]): 0.5 µg/mL (≈ 0.935 µM); MIC (Staphylococcus aureus; [20]): 32 µg/mL (≈ 59.9 µM); MIC [2, 21]: 4 µg/mL (≈ 7.48 µM); MIC [2, 22]: 4 µg/mL (≈ 7.48 µM); MIC (Streptococcus Group A): 1 µg/mL (≈ 1.87 µM); MIC (Streptococcus Group D; strain 9960): 64 µg/mL (≈ 120 µM); MIC (Streptococcus Group D; strain X66): 128 µg/mL (≈ 239 µM); MIC (Streptococcus pneumoniae): 2 µg/mL (≈ 3.74 µM)
O=CO[C@@H](C(=O)N[C@@H]1C(=O)N2C(C(=O)O)=C(CSc3nnnn3Cc3nnn[nH]3)CS[C@H]12)c1ccccc1 [C]	16 µg/mL (≈ 28.6 µM)	> 128 µg/mL	4 µg/mL (≈ 7.16 µM)	2 µg/mL (≈ 3.58 µM)	0.25 µg/mL (≈ 0.448 µM)	> 128 µg/mL	128 µg/mL (≈ 229 µM)	0.25 µg/mL (≈ 0.448 µM)	2 µg/mL (≈ 3.58 µM)	8 µg/mL (≈ 14.3 µM)	> 128 µg/mL	2 µg/mL (≈ 3.58 µM)	2 µg/mL (≈ 3.58 µM)	2 µg/mL (≈ 3.58 µM)	0.5 µg/mL (≈ 0.895 µM)	4 µg/mL (≈ 7.16 µM)	> 128 µg/mL	> 128 µg/mL	> 128 µg/mL	2 µg/mL (≈ 3.58 µM)	MIC (Haemophilus influenzae; strain 251, resistant strain): 4 µg/mL (≈ 7.16 µM); MIC (Haemophilus influenzae; strain Brun, sensitive strain): 4 µg/mL (≈ 7.16 µM); MIC (Salmonella sp.; [14]): 1 µg/mL (≈ 1.79 µM); MIC (Serratia marcescens; [15]): > 128 µg/mL; MIC (Serratia marcescens; [16]): 32 µg/mL (≈ 57.3 µM); MIC (Shigella sonnei): 1 µg/mL (≈ 1.79 µM); MIC (Staphylococcus aureus; [17]): 16 µg/mL (≈ 28.6 µM); MIC (Staphylococcus aureus; [18]): 8 µg/mL (≈ 14.3 µM); MIC (Staphylococcus aureus; [19]): 1 µg/mL (≈ 1.79 µM); MIC (Staphylococcus aureus; [20]): 128 µg/mL (≈ 229 µM); MIC [2, 21]: 8 µg/mL (≈ 14.3 µM); MIC [2, 22]: 32 µg/mL (≈ 57.3 µM); MIC (Streptococcus Group A): 0.5 µg/mL (≈ 0.895 µM); MIC (Streptococcus Group D; strain 9960): 128 µg/mL (≈ 229 µM); MIC (Streptococcus Group D; strain X66): > 128 µg/mL; MIC (Streptococcus pneumoniae): 0.25 µg/mL (≈ 0.448 µM)
CCN1CCN(C(=O)N[C@@H](C(=O)N[C@@H]2C(=O)N3C(C(=O)O)=C(CSc4nnnn4Cc4nnn[nH]4)CS[C@H]23)c2ccc(O)cc2)C(=O)C1=O [D, 7-[α-(4-Ethylpiperazin-2,3-dione-1-ylcarbonylamino)-α-(4-hydroxyphenyl)acetamido]-3-[1-(1H-tetrazole-5-ylmethyl)-1H-tetrazole-5-ylthiomethyl]-3-cephem-4-carboxylic acid]	32 µg/mL (≈ 44.8 µM)	32 µg/mL (≈ 44.8 µM)	2 µg/mL (≈ 2.8 µM)	0.5 µg/mL (≈ 0.701 µM)	0.25 µg/mL (≈ 0.35 µM)	128 µg/mL (≈ 179 µM)	2 µg/mL (≈ 2.8 µM)	0.125 µg/mL (≈ 0.175 µM)	2 µg/mL (≈ 2.8 µM)	16 µg/mL (≈ 22.4 µM)	> 128 µg/mL	1 µg/mL (≈ 1.4 µM)	2 µg/mL (≈ 2.8 µM)	1 µg/mL (≈ 1.4 µM)	8 µg/mL (≈ 11.2 µM)	4 µg/mL (≈ 5.6 µM)	8 µg/mL (≈ 11.2 µM)	4 µg/mL (≈ 5.6 µM)	8 µg/mL (≈ 11.2 µM)	4 µg/mL (≈ 5.6 µM)	MIC (Haemophilus influenzae; strain 251, resistant strain): 0.015 µg/mL (≈ 0.021 µM); MIC (Haemophilus influenzae; strain Brun, sensitive strain): 0.015 µg/mL (≈ 0.021 µM); MIC (Salmonella sp.; [14]): 2 µg/mL (≈ 2.8 µM); MIC (Serratia marcescens; [15]): 4 µg/mL (≈ 5.6 µM); MIC (Serratia marcescens; [16]): 1 µg/mL (≈ 1.4 µM); MIC (Shigella sonnei): 0.25 µg/mL (≈ 0.35 µM); MIC (Staphylococcus aureus; [17]): 32 µg/mL (≈ 44.8 µM); MIC (Staphylococcus aureus; [18]): 16 µg/mL (≈ 22.4 µM); MIC (Staphylococcus aureus; [19]): 4 µg/mL (≈ 5.6 µM); MIC (Staphylococcus aureus; [20]): > 128 µg/mL; MIC [2, 21]: 8 µg/mL (≈ 11.2 µM); MIC [2, 22]: 32 µg/mL (≈ 44.8 µM); MIC (Streptococcus Group A): 0.5 µg/mL (≈ 0.701 µM); MIC (Streptococcus Group D; strain 9960): 64 µg/mL (≈ 89.7 µM); MIC (Streptococcus Group D; strain X66): 128 µg/mL (≈ 179 µM); MIC (Streptococcus pneumoniae): 0.25 µg/mL (≈ 0.35 µM)
